Results on four molecules are retold here after PMC6522372 (Nature chemical biology, 2019).

One may read the Kd as the equilibrium constant for the complex coming apart. For orientation: stoichiometry N means the number of molecules, sites or subunits per partner or assembly.

Numbering of substitutions follows the chain as printed. Numbers in names are those of the source.

Data set [1] concerns the target T1, McsB (Geobacillus stearothermophilus, UniProt P0DMM5).
T1 sequence (P0DMM5 1-363): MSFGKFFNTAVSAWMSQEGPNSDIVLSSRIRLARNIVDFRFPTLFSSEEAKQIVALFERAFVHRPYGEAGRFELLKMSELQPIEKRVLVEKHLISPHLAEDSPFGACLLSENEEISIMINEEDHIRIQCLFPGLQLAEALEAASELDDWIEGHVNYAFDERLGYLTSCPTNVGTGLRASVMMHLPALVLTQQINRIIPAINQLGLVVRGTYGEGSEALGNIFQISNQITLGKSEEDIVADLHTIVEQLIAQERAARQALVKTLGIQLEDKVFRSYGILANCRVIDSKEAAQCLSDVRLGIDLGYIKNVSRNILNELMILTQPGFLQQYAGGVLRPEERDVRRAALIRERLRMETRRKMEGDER
As to the kind of experiment: SPR, steady-state. The format is binding. Background: Surface plasmon resonance follows binding to a sensor surface in real time, without labels.

Data set [2] addresses T2, McsB (Geobacillus stearothermophilus, UniProt P0DMM5).
T2 sequence (P0DMM5 1-355): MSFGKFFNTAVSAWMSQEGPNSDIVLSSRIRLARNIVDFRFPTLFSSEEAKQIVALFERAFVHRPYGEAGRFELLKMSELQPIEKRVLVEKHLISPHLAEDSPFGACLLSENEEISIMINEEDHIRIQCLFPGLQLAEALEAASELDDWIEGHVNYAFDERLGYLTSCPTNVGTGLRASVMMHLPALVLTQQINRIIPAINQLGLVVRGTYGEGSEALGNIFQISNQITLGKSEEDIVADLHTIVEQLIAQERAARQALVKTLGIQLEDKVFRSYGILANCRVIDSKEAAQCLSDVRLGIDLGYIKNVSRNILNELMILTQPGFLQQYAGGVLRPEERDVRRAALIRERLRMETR
The experiment in a line: X-ray crystal structure. It counts as binding.

The data set “SEC-MALS” concerns the molecule itself. As to the kind of experiment: SEC-MALS. A general note: Size exclusion chromatography separates by hydrodynamic size, large species first.

Take `Nc1ncnc2c1ncn2[C@@H]1O[C@H](COP(=O)(O)OP(=O)(O)OP(=O)(O)O)[C@@H](O)[C@H]1O` [ATP]: binding on McsB [1] was characterised by a dissociation constant (Kd) of 262 ± 27 µM.
`Nc1ncnc2c1ncn2[C@@H]1O[C@H](COP(=O)(O)OP(=O)(O)O)[C@@H](O)[C@H]1O` [ADP] came in with a Kd on McsB [1] of 208 ± 60 µM.
For the molecule `Nc1ncnc2c1ncn2[C@@H]1O[C@H](COP(=O)(O)OP(N)(=O)O)[C@@H](O)[C@H]1O` [AMP-PN], the “X-ray crystal structure (soak with AMP-PNP, hydrolysed to AMP-PN)” value at McsB [2] is given as “the Mg⋅ATP-binding site shows a clear electron density for AMP-PN”.

B1: full-length McsB R338A/D339A (enzyme)
chain: T1 sequence (P0DMM5 1-363) with R338A, D339A
On to B1, for which, in the data set “SEC-MALS”, the “stoichiometry N” value is 2.
